How the values were obtained:
[1] = tested on: BHK cells transfected with CnA and CnB; test: Calcium ionophore-induced apoptosis of BHK cells transfected with CnA/CnB; format: cell-based, baby hamster; conditions: ionomycin, low serum
Description: FIG. 7: Cells transfected with CnA/CnB (0.5 μg each) were serum deprived for four hours and stimulated with ionomycin (0.25 μM) for one hour in low serum media alone or containing CsA (800 nM), 6 MeAla-CsA (800 nM), and MeBm2t-CsA (800 nM), FK506 (100 nM).
Calcium signaling plays an important and yet mechanistically vague role in a wide range of cell death, including neuronal cell death in stroke and lymphocyte cell death during positive and negative selection. To test the possibility that calcineurin, a calcium-activated phosphatase, participates in cell death, we asked if cells overexpressing calcineurin would show an enhanced sensitivity to calcium ionophore-induced cell death (Shibasaki and McKeon, 1995). We co-transfected calcineurin A and B subunits into baby hamster kidney (BHK) cells and treated them with calcium ionophore approximately 16 hours later.

Csp1 transcripts = test: Csp1 transcript induction (Northern blot) in Jurkat T cells; format: cell-based; conditions: human Jurkat T cells, through eight hours
Description: 16A. Calcium signaling induces Csp 1 expression in synergy with PKC pathways. Csp 1 Northern blot of Jurkat T cells were treated with either calcium ionophore (I), PMA (P) or both (I+P) for the indicated durations. GAPDH transcripts were used as sample loading control.
16B. Calcium-dependent Csp 1 induction requires calcineurin.

[2] = tested on: calcineurin-dependent nuclear import of NF-AT4; test: Calcineurin-dependent NF-AT4 nuclear import assay in BHK cells; format: cell-based, baby hamster; conditions: for inhibition of NF-AT4 nuclear import stimulated by calcium ionophore: co-expressed with GFP-NF-AT4 in BHK cells; for inhibition of NF-AT nuclear import driven by constitutively active calcineurin (ΔCnA): co-expressed with NF-AT and constitutively active ΔCnA in BHK cells
Description: This assay monitors the subcellular location of GFP-tagged NF-AT4, a transcription factor that resides in the cytoplasm of unstimulated BHK cells. Following stimulation of BHK cells with ionomycin, a calcium ionophore, GFP-NF-AT4 translocates to the nucleus with a t1/2 of five minutes. This translocation event is accompanied by a dephosphorylation of NF-AT4 in a process dependent on calcineurin.
Baby hamster kidney cells were grown on sterile glass coverslips in DMEM media with 10% fetal calf serum and transfected using calcium phosphate methods (Heald et al., 1993). […] NF-AT4 expression was based on the vector pcDNA3-GFP-NF-AT4 (Shibasaki et al., 1996). Transfected cells were grown for 18 hours prior to drug treatments. Cells were fixed 30 minutes after ionomycin (0.5 uM) treatment or washout using 3% formaldehyde in PBS for 10 minutes at room temperature.

[3] = Solubility assay upon expression in E. coli; format: physicochemical
From the text: Calcineurin consists of two subunits (Klee et al., 1998), CnA (60 kDa) and CnB (18 kDa), neither of which is soluble when expressed individually in E. coli. The structure of calcineurin was studied by taking advantage of the high level of calcineurin in the central nervous system to directly isolate it from bovine brain (Griffith et al., 1995). […] It is likely that the insolublility of Csp expression in E. coli is due to the absence of binding proteins such as calcineurin, thereby leaving hydrophobic stretches of amino acids uncomplemented (FIG. 1). As with the calcineurin subunits, it is possible that Csp 1 and Csp2 interact with calcineurin in a manner that will form a properly folded, soluble complex. […] The E. coli host containing the calcineurin expression vector will be transformed with these Csp vectors and selected for kanamycin resistance.
Alternatively the given protein or complex may be obtained in sufficient quantities and quality and crystallization protocols may be attempted. […] The skilled artisan will appreciate that other protein expression systems, such as baculovirus, may also be used.

[4] = biological target: T1, purified bovine brain calcineurin (Bos taurus, UniProt P48452+P63099); test: Phosphorylated RII-peptide calcineurin phosphatase assay; format: biochemical; conditions: PKA-phosphorylated RII peptide as substrate; GsT fusion proteins 0-20 nM, 15 minutes; read-out: 50 percent inhibition concentrations (IC50) for calcineurin
T1 construct: 50 nM purified bovine brain calcineurin; from tissue; host or cells: bovine brain
Description: The RII peptide of the cAMP-regulatory subunit of PKA was produced as a fusion protein with GsT and labeled with ^32P-phosphate using protein kinase A followed by glutathione-Sepharose affinity purification (Milan et al., 1994). The radiolabeled RII GsT fusion protein was incubated with 1.5u of purified bovine brain calcineurin (ProMega) and 200 nM calmodulin (Sigma) in the presence of 0-20 nM GsT-Csp1 or GsT-Csp2 for 15 minutes. The reaction was stopped by the addition of an equal volume of 2xSDS sample buffer. After fractionation by SDS-polyacrylamide gel electrophoresis, free phosphate was measured by PhosphorImager analysis.

[5] = biological target: T1, purified bovine brain calcineurin; test: Para-nitrophenyl phosphate (pNPP) hydrolysis assay; format: biochemical; conditions: 60 mM pNPP, 50 nM calcineurin, 0-100 nM GsT fusion protein
Description: To determine whether the calcipressins; inhibit calcineurin in a manner similar to the immunosuppressants, we assayed pNPP hydrolysis by calcineurin-calcipressin complexes.
Reactions were performed for 30 min at 30 degrees, and stopped by the addition of 950 uL of 1M NaOH. The reaction product was measured by absorbance at 405 nm in a Beckman Du 64 spectophotometer.

[6] = tested on: human calcineurin A subunit; test: Yeast two-hybrid interaction with calcineurin; format: binding
From the text: Potential targets of calcineurin, which is involved in neuronal calcium signaling, were identified using two hybrid screens of a murine hippocampal cDNA library as the prey and using calcineurin as a bait.
The calcineurin bait vector was constructed by cloning the human calcineurin A subunit (ΔCnAD130N; Zhu and McKeon, 1999) into pBRIDGE (Clontech) to create a fusion protein with the Gal4 DNA binding domain. The calcineurin regulatory B subunit (CnB) was cloned into the same pBridge vector under a separate, constitutive promoter. To test for interactions between calcineurin and proteins expressed in the hippocampus, the yeast strain CG1945, in which HIS3 expression is controlled by the Gal1 upstream activating sequence (UAS), was transfected with both the pBRIDGE vector as well as vector DNA from the murine hippocampal cDNA library. Cells were selected for growth on SD media lacking leucine, tryptophan, methionine, and histidine (-LWMH) containing 25 mM 3-aminotriazole, an inhibitor of alternative histidine biosynthetic pathways (REF). […]

[7] = tested on: calcineurin-dependent NF-AT dephosphorylation; test: NF-AT4 dephosphorylation (western blot mobility) in BHK cells; format: cell-based, baby hamster; conditions: co-expressed with NF-AT4 in BHK cells; calcium ionophore treatment
Description: 3B. […] The transfected cells were either left untreated or treated with 1 μM calcium inonphore for 30 min, and the mobility of NF-AT4 was assessed by western blotting.

Sequence of human calcineurin A subunit (P63098 2-170, further chain): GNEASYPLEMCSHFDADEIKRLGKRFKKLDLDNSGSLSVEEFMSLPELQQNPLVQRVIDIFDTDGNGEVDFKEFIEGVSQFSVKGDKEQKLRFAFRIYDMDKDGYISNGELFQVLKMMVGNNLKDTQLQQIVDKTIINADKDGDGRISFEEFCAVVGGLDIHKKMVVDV

C/C=C/CC(C)(C)[C@@H](O)C1C(=O)N[C@@H](CC)C(=O)N(C)CC(=O)N(C)[C@@H](CC(C)C)C(=O)N[C@@H](C(C)C)C(=O)N(C)[C@@H](CC(C)C)C(=O)N[C@@H](C)C(=O)N[C@H](C)C(=O)N(C)[C@@H](CC(C)C)C(=O)N(C)[C@@H](CC(C)C)C(=O)N(C)[C@@H](C(C)C)C(=O)N1C (some centres unmarked) [MeBm2t-CsA]
effect on calcineurin-induced apoptosis [1]: augment the apoptotic effect of calcineurin to a greater extent than CsA

CCCCCCCCCCCCCC(=O)O[C@@H]1[C@@H](C)[C@@]2(O)[C@@H](C=C(CO)C[C@]3(O)C(=O)C(C)=C[C@@H]23)[C@@H]2C(C)(C)[C@]12OC(C)=O [PMA, phorbol 12-myristate 13-acetate]
effect on Csp1 transcript level (Csp1 transcripts): weak yet detectable stimulation of Csp1 transcription

C[C@H](CCC(=O)O)C[C@H](C)C[C@H](C)C(=O)/C=C(\O)[C@H](C)C[C@H](C)C/C=C/[C@@H](C)[C@@H](O)[C@@H](C)[C@@H](O)C[C@@H]1CC[C@@](C)([C@H]2CC[C@@](C)([C@@H](C)O)O2)O1 [ionomycin]
effect on Csp1 transcript level (Csp1 transcripts): not significantly elevated

Csp1 101-197: Csp1 lacking the N-terminus; C-terminal half of Csp1 (amino acids 101-197)
inhibition of NF-AT4 nuclear import stimulated by calcium ionophore [2]: sufficient to inhibit the nuclear import of NF-AT4 | fraction of molecule soluble in E. coli ([3]; truncated molecule expressed in E. coli): approximately 70%

Csp1: Calcipressin 1, murine homolog of DSCR1, endogenous inhibitor of calcineurin; amino acid sequence SEQ ID No: 4
IC50 [4]: 2 nM

Csp2: Calcipressin 2, murine homolog of ZAKI-4, endogenous inhibitor of calcineurin; amino acid sequence SEQ ID No: 5
inhibition of NF-AT4 nuclear import stimulated by calcium ionophore [2]: profound suppression | inhibition of NF-AT nuclear import driven by constitutively active calcineurin (ΔCnA) [2]: strong inhibitors of ΔCnA-induced NF-AT nuclear import | typical yield of total protein in the soluble fraction ([3]; full length molecule expressed in E. coli at 15, 22, or 30° C.): 3% | inhibition of pNPP hydrolysis by calcineurin [5]: blocked the hydrolysis of pNPP by calcineurin | IC50 [4]: 5 nM | binding to calcineurin in two-hybrid yeast strains [6]: specifically bind to the catalytic subunit of calcineurin (CnA) | NF-AT4 phosphorylation state [7]: hyperphosphorylated despite calcium ionophore treatment

Csp3: Third calcipressin family member, cDNA cloned from activated murine T cells; amino acid sequence SEQ ID No: 24
inhibition of NF-AT nuclear import driven by constitutively active calcineurin (ΔCnA) [2]: inhibits the calcineurin mediated translocation of NFAT

Source: US7396905B1, “Calcipressins: endogenous inhibitors of calcineurin, uses and reagents related thereto” (priority 1999, dated 2008)
